In ChEMBL document CHEMBL1148180, “The isolation and structural elucidation of four novel triterpene lactones, pseudolarolides A, B, C, and D, from Pseudolarix kaempferi” (J Nat Prod, 1993) one finds EC50 and Activity data, which are given here for 4 molecules.

Values after ≈ are worked out from the molar mass of the structure shown. Active and inactive are the calls of the source. The calls are words filed in the database; no cut-off is given here.

In one assay the test system is P388. Nature of the assay: Cytotoxicity against mouse P388 cells. It counts as functional, cell-based.
The test system of the next assay is A549. Nature of the assay: Cytotoxicity against human A549 cells. It counts as functional, cell-based.
A further assay has as its system HCT-8. Nature of the assay: Cytotoxicity against human HCT8 cells. It is filed as functional, cell-based.
For the next assay, the system named is KB. As to the kind of experiment: Cytotoxicity against human KB cells. It is filed as functional, cell-based.
The subject of the next assay is TE-671. As to the kind of experiment: Cytotoxicity against human TE671 cells. It counts as functional, cell-based.
The next assay concerns Human alphaherpesvirus 2. Nature of the assay: Antiviral activity against HSV2 in african green monkey Vero cells assessed as inhibition of viral plaque formation. It is filed as functional, organism-based.

On to `COC(=O)CC[C@]12C[C@]13CC[C@]1(C)[C@H]4[C@H](C)C[C@]5(C[C@@H](C)C(=O)O5)O[C@@H]4C[C@@]1(C)[C@@H]3CC[C@H]2C(C)(C)O` [PSEUDOLAROLIDE C], for which the 50% effective concentration (EC50) result in the assay with P388 (p388), in the assay on A549 (a549), with HCT-8 (hct-8), with KB (kb) and in the assay on TE-671 was “Not Active” each time.

Turning to `C[C@@H]1C[C@]2(C[C@@H](C)[C@H]3[C@@H](C[C@@]4(C)[C@@H]5CC[C@H]6C(C)(C)OC(=O)CC[C@@]67C[C@@]57CC[C@]34C)O2)OC1=O` [PSEUDOLAROLIDE D], the 50% effective concentration (EC50) entry in the assay with P388 (p388), with A549 (a549), in the assay with HCT-8 (hct-8), in the assay on KB (kb) and in the assay on TE-671 was “Not Active” in each case.

With `CC1=C[C@]2(C[C@@H](C)[C@H]3[C@@H](C[C@@]4(C)[C@@H]5CC[C@H]6C(C)(C)C(=O)CC[C@@]67C[C@@]57CC[C@]34C)O2)OC1=O` [PSEUDOLAROLIDE B], the EC50 is 0.79 µg/mL (≈ 1.69 µM) with P388 (Mus musculus, P388, read-out: EC50); 0.67 µg/mL (≈ 1.44 µM) with A549 (Homo sapiens, A549, read-out: EC50); 0.73 µg/mL (≈ 1.56 µM) with HCT-8 (Homo sapiens, HCT-8, read-out: EC50); 0.49 µg/mL (≈ 1.05 µM) in the assay on KB (Homo sapiens, KB, read-out: EC50); “Not Active” in the assay on TE-671. Moreover, the outcome in the assay on Human alphaherpesvirus 2 was Active.

As to `C[C@@H]1C[C@]2(C[C@@H](C)[C@H]3[C@@H](C[C@@]4(C)[C@@H]5CC[C@H]6C(C)(C)C(=O)CC[C@@]67C[C@@]57CC[C@]34C)O2)OC1=O` [PSEUDOLAROLIDE A], the EC50 result in the assay on P388 (p388), in the assay on A549 (a549), with HCT-8 (hct-8), with KB (kb) and in the assay on TE-671 was “Not Active” each time. For the same molecule, in the assay on Human alphaherpesvirus 2, the outcome was Active.
